Source: patent US10730863B2, “Bridged bicyclic compounds as farnesoid X receptor modulators” (BRISTOL-MYERS SQUIBB COMPANY, priority 2017, dated 2020)

How the values were obtained:
FXR [1] = molecular target: T1, FXR (Homo sapiens (Human), UniProt Q96RI1); test: transient human FXR/Gal4-luciferase reporter assay; assay type: cell-based; conditions: Gal4-hFXR LBD fusion in HEK293 reporter cells; relative to 8 μM GW-4064
Method: The exemplified compounds of the present invention were tested in the transient human FXR/Gal4-luciferase reporter assay, and assay results were described in the EXAMPLES section hereinbefore.
A Gal4-hFXR fusion construct reporter system was used as the primary assay to characterize compound activity. A construct including 5 copies of the Gal4 promoter response element upstream of a firefly luciferase reporter cDNA was stably expressed in HEK293 cells. This reporter cell line was maintained in Dulbecco's Modified Eagle's medium (DMEM; Gibco) supplemented with 1% penicillin-streptomycin (P/S) solution, 500 μg/ml Zeocin and 10% charcoal/dextran-treated fetal bovine serum (cs-FBS) at 37° C. in a humidified 5% CO2 atmosphere. Another plasmid was constructed in which the human cytomegalovirus promoter in the pcDNA3.1 vector directs the expression of the cDNA encoding a fusion protein comprised of the DNA binding domain from the Gal4 transcription factor fused to the ligand binding domain from human FXR.
The day prior to transfection, the reporter cells in culture are detached from the plate with trypsin and plated into a T75 flask at a sufficient density to achieve approximately 90% confluence the next morning. The transfection reagents are prepared by separately diluting 25 μg of the pcDNA3.1-Gal4-FXR plasmid into 1.87 mL of Opti-MEM (Thermo-Fisher), and 40 μL of Lipofectamine 2000 (Thermo-Fisher) into 1.87 mL of Opti-MEM, and then adding the diluted DNA solution into the diluted Lipofectamine 2000 solution and incubating at room temperature for 15-20 minutes. The mixture is further diluted with 10 mL of a solution comprised of DMEM, 10% cs-FBS, and 1% P/S immediately prior to transferring to the cells. The maintenance culture media is aspirated from the cells and the final transfection mixture is added before the cells are incubated overnight at 37° C. in a humidified 5% CO2 atmosphere. This protocol can be scaled up, and the transiently transfected cells can be cryopreserved in an assay-ready format.
For compound testing, 100 nL of the compounds (serial dilutions in DMSO) are dispensed with an Echo acoustic dispenser (Labcyte) into the wells of a Corning/Costar clear bottom 384-well white plate. The transfected cells are harvested, counted, and diluted such that 10-25,000 cells in 25 μL are plated into each well of the 384-well compound assay plate. The compound-treated cells are incubated overnight at 37° C. in a humidified 5% CO2 atmosphere. The next morning 25 μL of Steady-Glo (Promega) are added to each well of the plate, the mixture is incubated for 15 min. with shaking, and luminescence is measured on an Envision (Perkin Elmer) plate reader. Background counts from cells treated with DMSO alone are subtracted from all raw counts, and the corrected values are converted to a percentage of the control response attained with 8 μM GW-4064.

FXR [2] = molecular target: T1, FXR; test: FXR EC50 (FXR agonist activity reported with each example); assay type: cell-based

T1 sequence (Q96RI1 262-486): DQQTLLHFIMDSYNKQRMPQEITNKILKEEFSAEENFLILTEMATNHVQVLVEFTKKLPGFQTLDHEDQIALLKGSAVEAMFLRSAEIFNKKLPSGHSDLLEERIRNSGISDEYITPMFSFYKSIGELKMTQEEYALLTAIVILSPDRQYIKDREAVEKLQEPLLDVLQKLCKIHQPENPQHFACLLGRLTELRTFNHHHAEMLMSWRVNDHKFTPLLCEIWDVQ

EC50 (FXR [2])	SMILES	EC50 (FXR [1])
	CCc1cc(OCC23CCC(OCc4c(-c5c(Cl)cncc5Cl)noc4C4CC4)(CC2)CC3)nn1CC(=O)O [Example 524]	1500 nM
	O=C(O)c1cccc(COCC23CCC(OCc4c(-c5c(Cl)cncc5Cl)noc4C4CC4)(CC2)CC3)c1 [Example 525]	167 nM
	Cn1nc(C(=O)O)cc1OCC12CCC(OCc3c(-c4c(Cl)cncc4Cl)noc3C3CC3)(CC1)CC2 [Example 526]	296 nM
	O=C(O)c1cc(C(F)(F)F)cc(COCC23CCC(OCc4c(-c5c(Cl)cncc5Cl)noc4C4CC4)(CC2)CC3)n1 [Example 527]	86 nM
	O=C(O)c1cc(OCC23CCC(OCc4c(-c5c(Cl)cncc5Cl)noc4C4CC4)(CC2)CC3)nn1CC1CC1 [Example 528]	16 nM
	CCc1nc(C(=O)O)cc2ccc(OCC34CCC(OCc5c(-c6c(Cl)cncc6Cl)noc5C5CC5)(CC3)CC4)cc12 [Example 529]	9 nM
	CCn1nc(OCC23CCC(OCc4c(-c5c(Cl)cncc5Cl)noc4C4CC4)(CC2)CC3)c(C)c1C(=O)O [Example 530]	219 nM
	Cc1c(OCC23CCC(OCc4c(-c5c(Cl)cncc5Cl)noc4C4CC4)(CC2)CC3)nn(C(C)C)c1C(=O)O [Example 531]	138 nM
	Cc1c(OCC23CCC(OCc4c(-c5c(Cl)cncc5Cl)noc4C4CC4)(CC2)CC3)nn(CC2CC2)c1C(=O)O [Example 532]	148 nM
	Cc1c(OCC23CCC(OCc4c(-c5c(Cl)cncc5Cl)noc4C4CC4)(CC2)CC3)nn(CC2COC2)c1C(=O)O [Example 533]	1910 nM
	Cc1c(OCC23CCC(OCc4c(-c5c(Cl)cncc5Cl)noc4C4CC4)(CC2)CC3)nn(C)c1C(=O)O [Example 534]	248 nM
	O=C(O)c1c(F)c(OCC23CCC(OCc4c(-c5c(Cl)cncc5Cl)noc4C4CC4)(CC2)CC3)nn1CC1CC1 [Example 535]	50 nM
	CC(F)(F)c1cc(OCC23CCC(OCc4c(-c5c(Cl)cncc5Cl)noc4C4CC4)(CC2)CC3)cnc1C(=O)O [Example 536]	55 nM
	CCn1nc(C(=O)O)cc1OCC12CCC(OCc3c(-c4c(Cl)cncc4Cl)noc3C3CC3)(CC1)CC2 [Example 537]	79 nM
	O=C(O)c1ccn2cc(OCC34CCC(OCc5c(-c6c(Cl)cncc6Cl)noc5C5CC5)(CC3)CC4)nc2c1 [Example 538]	90 nM
	O=C(O)c1cc(OCC23CCC(OCc4c(-c5c(Cl)cncc5Cl)noc4C4CC4)(CC2)CC3)nn1C1CC1 [Example 539]	25 nM
	CCn1nc(C(=O)O)c(F)c1OCC12CCC(OCc3c(-c4c(Cl)cncc4Cl)noc3C3CC3)(CC1)CC2 [Example 540]	345 nM
	O=C(O)c1cc(OCC23CCC(OCc4c(-c5c(Cl)cncc5Cl)noc4C4CC4)(CC2)CC3)n(C2CC2)n1 [Example 541]	59 nM
	O=C(O)c1cnc(C#CC23CCC(OCc4c(-c5c(Cl)cncc5Cl)noc4C4CC4)(CC2)CC3)cn1 [Example 542]	4880 nM
	O=C(O)c1cc(N2CCOCC2)c2nc(C34CCC(OCc5c(-c6c(Cl)cncc6Cl)noc5C5CC5)(CC3)CC4)ccc2c1 [Example 543]	469 nM
	O=C(O)c1cc(OC2COC2)c2nc(C34CCC(OCc5c(-c6c(Cl)cncc6Cl)noc5C5CC5)(CC3)CC4)ccc2c1 [Example 544]	118 nM
	O=C(O)c1cc(C(F)(F)F)cn2c(C#CC34CCC(OCc5c(-c6c(Cl)cncc6Cl)noc5C5CC5)(CC3)CC4)cnc12 [Example 545]	5 nM
	CCc1cc(C(=O)O)c2ncc(C#CC34CCC(OCc5c(-c6c(Cl)cncc6Cl)noc5C5CC5)(CC3)CC4)n2c1 [Example 546]	7 nM
	O=C(O)c1cc2ccc(Cl)cc2c(C#CC23CCC(OCc4c(-c5c(Cl)cncc5Cl)noc4C4CC4)(CC2)CC3)n1 [Example 547]	251 nM
	O=C(O)c1cc2ccc(C#CC34CCC(OCc5c(-c6c(Cl)cncc6Cl)noc5C5CC5)(CC3)CC4)cc2c(N2CCOCC2)n1 [Example 548]	13 nM
	COCCCOc1nc(C(=O)O)cc2cc(C#CC34CCC(OCc5c(-c6c(Cl)cncc6Cl)noc5C5CC5)(CC3)CC4)ccc12 [Example 549]	126 nM

EC50 (FXR [2])	SMILES	EC50 (FXR [1])
	O=C(O)c1cc2ccc(C#CC34CCC(OCc5c(-c6c(Cl)cncc6Cl)noc5C5CC5)(CC3)CC4)cc2c(Nc2ccccc2)n1 [Example 550]	186 nM
	O=C(O)c1cc2ccc(C#CC34CCC(OCc5c(-c6c(Cl)cncc6Cl)noc5C5CC5)(CC3)CC4)cc2c(NC2CC2)n1 [Example 551]	406 nM
	O=C(O)c1cc2ccc(C#CC34CCC(OCc5c(-c6c(Cl)cncc6Cl)noc5C5CC5)(CC3)CC4)cc2c(N2CC(O)C2)n1 [Example 552]	100 nM
	O=C(O)c1cc2ccc(C#CC34CCC(OCc5c(-c6c(Cl)cncc6Cl)noc5C5CC5)(CC3)CC4)cc2c(N2CC(F)C2)n1 [Example 553]	12 nM
	O=C(O)COc1ccc(C#CC23CCC(OCc4c(-c5c(Cl)cncc5Cl)noc4C4CC4)(CC2)CC3)c(F)c1 [Example 554]	3160 nM
	O=C(O)c1cc2cc(C#CC34CCC(OCc5c(-c6c(Cl)cncc6Cl)noc5C5CC5)(CC3)CC4)ccc2c(N2CCOCC2)n1 [Example 555]	87 nM
	COCCCOc1cc(C(=O)O)cc2ccc(C34CCC(OCc5c(-c6c(Cl)cncc6Cl)noc5C5CC5)(CC3)CC4)nc12 [Example 556]	30 nM
	O=C(O)c1cc2ccc(C#CC34CCC(OCc5c(-c6c(Cl)cncc6Cl)noc5C5CC5)(CC3)CC4)cc2c(N2CCC(O)C2)n1 (stereo not drawn) [Example 557]	188 nM
	O=C(O)c1cc2ccc(C#CC34CCC(OCc5c(-c6c(Cl)cncc6Cl)noc5C5CC5)(CC3)CC4)cc2c(N2CCC(O)CC2)n1 [Example 558]	20 nM
	O=C(O)c1cc2ccc(C#CC34CCC(OCc5c(-c6c(Cl)cncc6Cl)noc5C5CC5)(CC3)CC4)cc2c(N2CCC2)n1 [Example 559]	20 nM
	O=C(O)c1cc(OC2CCOC2)c2nc(C34CCC(OCc5c(-c6c(Cl)cncc6Cl)noc5C5CC5)(CC3)CC4)ccc2c1 (stereo not drawn) [Example 560]	286 nM
	O=C(O)COc1cc(C#CC23CCC(OCc4c(-c5c(Cl)cncc5Cl)noc4C4CC4)(CC2)CC3)ccn1 [Example 561]	779 nM
	O=C(O)c1cnc(N2CCC2)c(C#CC23CCC(OCc4c(-c5c(Cl)cncc5Cl)noc4C4CC4)(CC2)CC3)c1 [Example 562]	21 nM
	COc1ncc(C(=O)O)cc1C#CC12CCC(OCc3c(-c4c(Cl)cncc4Cl)noc3C3CC3)(CC1)CC2 [Example 563]	16 nM
	O=C(O)CCc1ccc(C#CC23CCC(OCc4c(-c5c(Cl)cncc5Cl)noc4C4CC4)(CC2)CC3)cc1 [Example 564]	175 nM
	O=C(O)Cc1ccc(C#CC23CCC(OCc4c(-c5c(Cl)cncc5Cl)noc4C4CC4)(CC2)CC3)c(C(F)(F)F)c1 [Example 565]	115 nM
	O=C(O)COCc1ccc(C#CC23CCC(OCc4c(-c5c(Cl)cncc5Cl)noc4C4CC4)(CC2)CC3)cc1 [Example 566]	194 nM
	O=C(O)Cc1ccc(C#CC23CCC(OCc4c(-c5c(Cl)cncc5Cl)noc4C4CC4)(CC2)CC3)cc1F [Example 567]	121 nM
	CN1CCN(c2ncc(C(=O)O)cc2C#CC23CCC(OCc4c(-c5c(Cl)cncc5Cl)noc4C4CC4)(CC2)CC3)CC1 [Example 568]	524 nM
	O=C(O)COCc1ccc(C#CC23CCC(OCc4c(-c5c(Cl)cncc5Cl)noc4C4CC4)(CC2)CC3)nc1 [Example 569]	1360 nM
	CN1CCN(c2nc(C(=O)O)cc3cc(C#CC45CCC(OCc6c(-c7c(Cl)cncc7Cl)noc6C6CC6)(CC4)CC5)ccc23)CC1 [Example 570]	201 nM
	O=C(O)COCc1ccc(C#CC23CCC(OCc4c(-c5c(Cl)cncc5Cl)noc4C4CC4)(CC2)CC3)cn1 [Example 571]	272 nM
	CN(C)C1CN(c2nc(C(=O)O)cc3ccc(C#CC45CCC(OCc6c(-c7c(Cl)cncc7Cl)noc6C6CC6)(CC4)CC5)cc23)C1 [Example 572]	61 nM
	O=C(O)c1cc2ccc(C#CC34CCC(OCc5c(-c6c(Cl)cncc6Cl)noc5C5CC5)(CC3)CC4)cc2c(N2CCNCC2)n1 [Example 573]	1630 nM
2500 nM	COC(=O)c1ccc(-c2noc(C34CCC(C=Cc5c(-c6c(Cl)cccc6Cl)noc5C5CC5)(CC3)C4)n2)cc1 [Intermediate 226C, methyl 4-(5-(4-(2-(5-cyclopropyl-3-(2,6-dichlorophenyl)isoxazol-4-yl)vinyl)bicyclo[2.2.1]heptan-1-yl)-1,2,4-oxadiazol-3-yl)benzoate]	
